Assay results published in paper PMC9871035, “Discovery of structural and functional transition sites for membrane-penetrating activity of sheep myeloid antimicrobial peptide-18” (Scientific Reports, 2023).
Where no end group is shown, it is not given here.

Experiments:
S. aureus (KCTC 1621) [1] = experiment: Confocal laser scanning microscopy of FITC-labeled peptides; format: cell-based, Staphylococcus aureus; conditions: FITC-labeled peptide 10 μM, 37 ℃, 30 min
Method: (§1) E. coli (KCTC 1682) and S. aureus (KCTC 1621) were grown at mid-log phase and washed three times with PBS (pH 7.4). The bacteria were diluted at 10^6 CFU/ml and incubated with FITC-labeled peptides (10 μM) at 37 ℃ for 30 min. After incubation, this solution was washed thrice with PBS and was then transferred to a confocal dish. […] Fluorescent images were obtained with a 488 nm bandpass filter for FITC excitation.

S. aureus (KCTC 1621) [2] = experiment: SYTOX Green uptake assay; format: cell-based, Staphylococcus aureus; conditions: 2 × MIC, SYTOX 0.1 μM, PBS pH 7.4
Method: The membrane permeabilization activity of the peptides was determined by using the SYTOX Green uptake assay, as described previously[33]. S. aureus (KCTC 1621) grown at 37 ℃ until the mid-log phase (OD600 = 0.4). The cell pellet was washed using PBS (pH 7.4) and was diluted to an OD600 = 0.05 in PBS (pH 7.4); SYTOX was added to the final concentration of 0.1 μM and this solution was pre-incubated in the dark at 4 ℃ for 16 h. Fluorescence was monitored using a F-4500 FL spectrophotometer (Hitachi, Japan) and excitation and emission wavelengths of 480 nm and 520 nm, respectively.

[3] = system: Gram-negative and Gram-positive bacteria; experiment: MIC over the panel of six strains (GM, range); format: cell-based; conditions: six strains of Table 1; average value ± SD
Method: The antimicrobial activity of the peptides, i.e., their MIC values, were determined against Escherichia coli (KCTC 1682), Salmonella typhimurium (KCTC 1926), Pseudomonas aeruginosa (KCTC 1637), Bacillus subtilis (KCTC 3068), Staphylococcus epidermidis (KCTC 1917), Staphylococcus aureus (KCTC 1621), and Methicillin-resistant Staphylococcus aureus (CCARM 3089, 3090 and 3095) using broth microdilution in a 96-well plate according to existing methodologies[23]. Bacteria were grown at 37 ℃ on a spinner culture until a mid-log phase diluted to 2 × 10^6 CFU/ml in 1% peptone. The bacterial suspension was added to 100 μl of the sample solution (i.e., serial twofold dilution in 1% peptone). […] All experiments were performed in triplicate and included growth and sterility controls.

[4] = system: S. aureus (KCTC 1621) cytoplasmic membrane; experiment: Membrane depolarization assay (diSC3-5); format: cell-based, Staphylococcus aureus; conditions: 2 × MIC, monitored over 1400 s
Method: The cytoplasmic membrane depolarization activity of the peptides was measured using the membrane potential sensitive dye diSC3-5, as previously described[31],[32]. Briefly, S. aureus (KCTC 1621) was grown at 37 ℃ with agitation until the mid-log phase (OD600 = 0.3) and was harvested by centrifugation. Cells are washed twice with a buffer solution (i.e., 20 mM Glucose, 5 mM HEPES, 100 mM KCl; pH 7.4) and were resuspended to an OD600 = 0.05 in the buffer. Membrane depolarization was monitored by recording changes in the intensity of fluorescence emission of diSC3-5 after peptide concentration.

E. coli (KCTC 1682) = experiment: Confocal laser scanning microscopy of FITC-labeled peptides; format: cell-based, Escherichia coli; conditions: FITC-labeled peptide 10 μM, 37 ℃, 30 min
Method: as §1

[5] = Estimation of helicity from CD; format: physicochemical; conditions: peptide 100 μM, from [θ]mr at 222 nm; for % α-helix, H2O: H2O (10 mM sodium phosphate, pH 7.0)
Method: CD spectra were measured on a J-810 spectropolarimeter (JASCO) using a 1.0 mm path-length cell. […] Three scans were conducted from 190 to 260 nm and the data are expressed in terms of mean residue molar ellipticity [θ]mr. The mean residue ellipticity, [θ]mr (deg cm^2 dmol^-1), was calculated according to the equation [θ]mr = (100θ)/(clN), where θ is the measured ellipticity (mdeg), c is the sample concentration (mM), l is the path length (cm), and N is the number of amino acids. Percent α-helicity was calculated using the equation ([θ]mr222nm—3000)/(− 39,000 × 100)[29]. Reference values for [θ]mr222nm = 0 and 36,000 (deg cm^2 dmol^−1) were used for 0% and 100% helicity, respectively[30].

Substance | Localization of peptide in S. aureus (S. aureus (KCTC 1621) [1]) | SYTOX Green uptake (fluorescence) (S. aureus (KCTC 1621) [2]) | GM (geometric mean of MIC values from selected bacterial strains) [3] | Membrane depolarization of S. aureus (diSC3-5 fluorescence) [4] | Localization of peptide in E. coli (E. coli (KCTC 1682)) | % α-helix, 50% TFE [5] [%] | % α-helix, H2O [5] [%]
RALRRLARKIAHAVKKYG-NH2 [G2,7,13A] | likely bound to the cell membrane | induced the maximal fluorescence | 4.3(± 2.9) μM | induced a significant membrane depolarization | likely bound to the cell membrane | 44.4 | 5.7
RGLRRLARKIAHAVKKYG-NH2 [G7,13A] |  | induced the maximal fluorescence | 4.5(± 2.9) μM | induced a significant membrane depolarization |  | 33.9 | 7.6
RGLRRLG-NH2 [R1-G7] |  |  | > 64 µM |  |  | 6.9 | 5.6
